From patent publication US20040162286A1, “Substituted 6-(2-tolyl)-triazolopyrimidines as fungicides” (priority 2001, published 2004)

The compounds below were run on Blumeria graminis f. sp. tritici (assay: Fungicidal control of powdery mildew on wheat, protective spray). Settings: 63 ppm active ingredient, assessed after 7 days, untreated plants infected to 85%.
Type: in vivo
From the text: The active compounds, separately or together, were formulated as a 10% emulsion in a mixture of 70% by weight of cyclohexanone, 20% by weight of Nekanil® LN (Lutensol® AP6, wetting agent having emulsifying and dispersant action based on ethoxylated alkylphenols) and 10% by weight of Wettol® EM (nonionic emulsifier based on ethoxylated castor oil) and diluted with water to the desired concentration. The first fully developed leaves of pot grown wheat of the variety “Kanzler” were sprayed to run-off with an aqueous suspension, containing the concentration of active ingredient or their mixture mentioned in the table below, prepared from a stock solution containing 10% of the active ingredient, 85% cyclohexanone and 5% emulsifier. The next day the treated plants were inoculated with spores of Blumeria graminis f. sp. tritici by shaking heavily infestated stock plants over the treated pots. After cultivation in the greenhouse for 7 days at 22-26° C. and a relative humidity between 60 to 90% the extent of fungal attack on the leaves was visually assessed as % diseased leaf area. The test was conducted as described in Comparison trial 2.

Row | Structure (SMILES) | infection (% diseased leaf area) [%]
1 | Cc1ccccc1-c1c(Cl)nc2ncnn2c1NC(C)C(F)(F)F (centres unmarked) [Compound A] | 30

The compounds below were run on Alternaria solani (assay: Fungicidal control of early blight on tomatoes, protective spray). Settings: 63 ppm active ingredient; tomato plants; assessed after 6 days; untreated plants infected to 90%.
Type: in vivo
Description: The active compounds, separately or together, were formulated as a 10% emulsion in a mixture of 70% by weight of cyclohexanone, 20% by weight of Nekanil® LN (Lutensol® AP6, wetting agent having emulsifying and dispersant action based on ethoxylated alkylphenols) and 10% by weight of Wettol® EM (nonionic emulsifier based on ethoxylated castor oil) and diluted with water to the desired concentration. Young seedlings of tomato plants of the variety “Groβe Fleischtomate St. Pierre” were grown in pots to the 2 to 4 leaf stage. These plants were sprayed to run-off with an aqueous suspension, containing the concentration of active ingredient mentioned in the table below, prepared from a stock solution containing 10% of the active ingredient, 85% cyclohexanone and 5% emulsifier. The next day, the treated plants were inoculated with an aqueous suspension of Alternaria solani containing 0.2×10^6 spores per ml. Then the trial plants were immediately transferred to a humid chamber. After 6 days at 20 to 23° C. and a relative humidity close to 100%, the extent of fungal attack on the leaves was visually assessed as % diseased leaf area. The test was conducted as described in Comparison trial 1.

Row | Structure (SMILES) | infection (% diseased leaf area) [%]
2 | Cc1ccccc1-c1c(Cl)nc2ncnn2c1NC(C)C(F)(F)F (centres unmarked) [Compound A] | 15

Same assay, conditions: 250 ppm active ingredient; tomato plants; untreated plants infected to 90%

Row | Structure (SMILES) | infection (% diseased leaf area)
3 | Cc1cc(F)ccc1-c1c(Cl)nc2ncnn2c1NC(C)C(C)C (racemic) [I-38] | no infection
4 | Cc1cc(Cl)ccc1-c1c(Cl)nc2ncnn2c1NCC(F)(F)F [I-83] | no infection
5 | Cc1cc(F)ccc1-c1c(Cl)nc2ncnn2c1N1CCC(C)CC1 [I-30] | no infection
6 | CCC(C)Nc1c(-c2ccc(F)cc2C)c(Cl)nc2ncnn12 (racemic) [I-35] | no infection
7 | Cc1cc(F)ccc1-c1c(Cl)nc2ncnn2c1NC(C)C(C)(C)C (racemic) [I-41] | no infection
8 | C=C(C)CN(CC)c1c(-c2ccc(F)cc2C)c(Cl)nc2ncnn12 [I-28] | no infection
9 | Cc1cc(Cl)ccc1-c1c(Cl)nc2ncnn2c1N1CCC(C)CC1 [I-66] | no infection
10 | Cc1cc(F)ccc1-c1c(Cl)nc2ncnn2c1NC(C)C(F)(F)F (racemic) [I-44] | no infection
11 | Cc1cccc(F)c1-c1c(Cl)nc2ncnn2c1N1CCC(C)CC1 [I-9] | no infection
12 | C=C(C)CN(CC)c1c(-c2c(C)cccc2F)c(Cl)nc2ncnn12 [I-7] | no infection
13 | Cc1cccc(F)c1-c1c(Cl)nc2ncnn2c1NC1CCCC1 [I-10] | no infection

The compounds below were run on Plasmopara viticola (assay: Fungicidal control of grape downy mildew (Comparison Trial 3, inoculation the next day)). Settings: 250 ppm active ingredient; grape cuttings; inoculated next day; untreated plants infected to 80%.
Type: in vivo
Description: The active compounds, separately or together, were formulated as a 10% emulsion in a mixture of 70% by weight of cyclohexanone, 20% by weight of Nekanil® LN (Lutensol® AP6, wetting agent having emulsifying and dispersant action based on ethoxylated alkylphenols) and 10% by weight of Wettol® EM (nonionic emulsifier based on ethoxylated castor oil) and diluted with water to the desired concentration. Grape cuttings of the cultivar “Müller-Thurgau” were grown in pots to the 4 to 5 leaf stage. These plants were sprayed to run-off with an aqueous suspension, containing the concentration of active ingredient or their mixture mentioned in the table below, prepared from a stock solution containing 10% of the active ingredient, 85% cyclohexanone and 5% emulsifier. The plants were allowed to air-dry. The next day they were inoculated with an aqueous spore suspension of Plasmopara viticola by spraying it at the lower leaf-side. Then the trial plants were immediately transferred for 24 h to a humid chamber with 22-24° C. and a relative humidity close to 100%. For a period of 5 days, cultivation followed in a greenhouse at 20-25° C. and a relative humidity about 50-80%. To stimulate the outbreak of the disease symptoms, the plants were transferred to a humid chamber again for 24 hours. Then the extent of fungal attack on the lower leaf surface was visually assessed as % diseased leaf area.

Row | Structure (SMILES) | infection (% diseased leaf area, lower leaf surface) [%]
14 | Cc1ccccc1-c1c(Cl)nc2ncnn2c1NC(C)C(F)(F)F (centres unmarked) [Compound A] | 80
